Assay results published in PMC9643456, “Matching amino acids membrane preference profile to improve activity of antimicrobial peptides” (Communications Biology, 2022).
Ends that are not written are not given here.

Assays:
human red blood cells = assay: Hemolytic activity; format: cell-based; conditions: red cells of human, 18 h
How it was run: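 Peptides (100 μM down to 0.78 μM) were incubated with 4% final human erythrocytes in PBS for 18 h at 37 °C. Supernatant absorbance at 540 nm after centrifugation was scaled to 1% Triton X-100 (100%) and no peptide (0%); melittin served as positive control; triplicate runs.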

[1] = Maximum soluble concentration / turbidity; format: physicochemical; conditions: for solubility: distilled water; for Maximum soluble concentration in PBS: lyophilized peptide reconstructed in PBS at 200-6.25 μM, visible turbidity checked every 12 h for 5 days, at least twice
Procedure: Supplementary Methods Bacteria preparation, Antimicrobial peptides preparation, Minimal-inhibitory-concentration measurements, Hemolysis-activity measurements, Tryptophan fluorescence measurements, Isothermal titration calorimetry measurements, Bacteria membrane ion permeation measurements, Outer-inner membrane permeation, Field-emission scanning electron microscopy and Antimicrobial kinetics were performed as described in Materials and Methods. Liposome (LUV) preparation. Bacterial-membrane-mimic DMPC/DMPG unilamellar vesicles (LUV) and mammalian- membrane-mimic PC/cholesterol vesicles with 100-nm diameters were prepared by extrusion. LiposoFast Liposome Factory Basic unit with stabilizer (Avestin, Ottawa, Canada) was used to extrude liposomes 50 times through a polycarbonate membrane filter (pore diameter, 100 nm; filter diameter, 0.75 inches) (Avestin). […] rac-(1-glycerol)) (sodium salt) (DMPG) (Avanti, Alabama, USA); 1,2-Dimyristoyl-sn-glycero-3-phosphocholine (DMPC) (Avanti); and cholesterol (Sigma, Darmstadt, Germany) were used. For circular dichroism, isothermal titration calorimetry, tryptophan fluorescence, and dynamic light scattering experiments, liposomes were reconstructed and resuspendedwith phosphate-buffered saline (PBS; Welgene Inc, Gyeongsangbuk-do, Korea). For calcein-permeation tests, liposomes were reconstructed with calcein solutions (80 mM, 40 mM, 30 mM, 20 mM, and 10 mM) (Sigma, Darmstadt, Germany), purified with Sephadex-G50 columns (Pharmacia biotech, Stockholm, Sweden), and resuspended with PBS. Maximum-soluble -concentration measurements. […] turbidity with PBS. The lowest concentration of peptide without visible turbidity was determined to be the maximu m soluble concentration. Each experiment was performed at least twice. Circular dichroism (CD) spectrum. DMPC/PG -liposome, PC/cholesterol -liposome, and peptide stock solutions were diluted in PBS. For circular dichroism, PBS with neither liposome nor peptides was also prepared. Liposomes and peptides were mixed to […] Samples were transferred into type J/1 cuvettes (Jasco, Tokyo, Japan). Cuvettes were placed into the J -815 circular -dichroism spectrometer (Jasco, Tokyo, Japan). Measurement parameters were as follows: wavelength, 190 -260 nm; data pitch, 0.2 nm; bandwidth, 1.00 nm; […] Each experiment was performed in triplicate. Data below 197 nm was not analyzed because o f experimental difficulties in obtaining those spectra. Each experiment was performed at least twice. Artificial membrane calcein permeation measurements. Calcein fluorescence was used to measure peptide -induced liposome permeation. Calcein solutions (10 mM, 20 mM, or 60 mM) containing PC/PG liposomes and peptides were diluted in PBS ( ×1, ×2, ×3, ×8). […] Liposome solutions (180 μl) were transferred to wells of black, clear -bottomed 96 -well plates (Costar, New York, USA). Peptide […] Liposome-containing plates and peptide -containing plates were inserted into a Flexstation 3 Multi -Mode Microplate Reader (Molecular Devices, California, USA). Peptide solutions (20 μl) were transferred and mixed with liposome solution automatical ly after 30 sec. […] Measurement parameters were as follows: excitation, 490 nm; emission, 520 nm; temperature, 37 °C. […] was transferred and mixed with the liposome -peptide solu tions automatically after 300 sec to acquire fluorescence at maximum leakage. […] Fluorescence measured between 0 -300 sec after addition of 0 μg/ml peptide was considered the baseline. Each experiment was performed at least twice. Dynamic light scattering (DLS) measurements. Dynamic light scattering was used to measure peptide -induced liposome volume changes. PC/PG -liposome stock solutions and peptides were resuspended in PBS. Liposomes and peptides were mixed to […]

MDR E. faecalis = assay: microbe, parasite or virus in culture; conditions: for MIC in 0.2% albumin and 0.01% AcOH added CLSI standard condition, MDR E. faecalis: CAMHB plus 0.2% bovine serum albumin and 0.01% acetic acid, values marked * in Table 2; for Minimum inhibitory concentrations, MDR E. faecalis: CLSI broth microdilution, CAMHB with 50 mg/L Ca2+, 10 mg/L Mg2+, 5 × 10^5 CFU/ml, 18 h 37 °C, triplicate, strain ATCC 51575
How it was run: (§1)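 MIC was read by eye as the lowest peptide concentration leaving no visible turbidity. Peptide and mid-log cells (final 5 × 10^5 CFU/ml) were combined in cation-adjusted Mueller–Hinton broth containing 50 mg/L calcium and 10 mg/L magnesium and incubated 18 h at 37 °C.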

MDR S. aureus = assay: microbe, parasite or virus in culture; conditions: for MIC in 0.2% albumin and 0.01% AcOH added CLSI standard condition, MDR S. aureus: CAMHB plus 0.2% bovine serum albumin and 0.01% acetic acid, values marked * in Table 2; for Minimum inhibitory concentrations, MDR S. aureus: CLSI broth microdilution, CAMHB with 50 mg/L Ca2+, 10 mg/L Mg2+, 5 × 10^5 CFU/ml, 18 h 37 °C, triplicate, strain KCCM 40510
How it was run: as §1

MDR A. baumannii = assay: microbe, parasite or virus in culture; conditions: for MIC in 0.2% albumin and 0.01% AcOH added CLSI standard condition, MDR A. baumannii: CAMHB plus 0.2% bovine serum albumin and 0.01% acetic acid, values marked * in Table 2; for Minimum inhibitory concentrations, MDR A. baumannii: CLSI broth microdilution, CAMHB with 50 mg/L Ca2+, 10 mg/L Mg2+, 5 × 10^5 CFU/ml, 18 h 37 °C, triplicate, strain ATCC BAA-1605
How it was run: as §1

MDR P. aeruginosa = assay: microbe, parasite or virus in culture; conditions: for MIC in 0.2% albumin and 0.01% AcOH added CLSI standard condition, MDR P. aeruginosa: CAMHB plus 0.2% bovine serum albumin and 0.01% acetic acid, values marked * in Table 2; for Minimum inhibitory concentrations, MDR P. aeruginosa: CLSI broth microdilution, CAMHB with 50 mg/L Ca2+, 10 mg/L Mg2+, 5 × 10^5 CFU/ml, 18 h 37 °C, no visible turbidity, triplicate, strain CCARM 2180
How it was run: as §1

Compound	Hemolysis percent, 25 μM (human red blood cells) [%]	Hemolysis percent, 50 μM (human red blood cells) [%]	Hemolysis percent, 100 μM (human red blood cells) [%]	solubility [1] [µM]	MIC in 0.2% albumin and 0.01% AcOH added CLSI standard condition, MDR E. faecalis (MDR E. faecalis) [µM]	Minimum inhibitory concentrations, MDR E. faecalis (MDR E. faecalis) [µM]	MIC in 0.2% albumin and 0.01% AcOH added CLSI standard condition, MDR S. aureus (MDR S. aureus) [µM]	Minimum inhibitory concentrations, MDR S. aureus (MDR S. aureus) [µM]	MIC in 0.2% albumin and 0.01% AcOH added CLSI standard condition, MDR A. baumannii (MDR A. baumannii) [µM]	Minimum inhibitory concentrations, MDR A. baumannii (MDR A. baumannii) [µM]	MIC in 0.2% albumin and 0.01% AcOH added CLSI standard condition, MDR P. aeruginosa (MDR P. aeruginosa) [µM]	Minimum inhibitory concentrations, MDR P. aeruginosa (MDR P. aeruginosa) [µM]	Maximum soluble concentration in PBS [1] [µM]	MIC at TM potential condition, S. aureus KCCM 40510 (MDR S. aureus; bacteria OD 0.1 (5 x 10^7 cfu/ml), CAMHB, 1% DMSO) [µM]
CC(C)C[C@H](NC(=O)[C@H](CCCNC(=N)N)NC(=O)CNC(=O)CNC(=O)[C@@H](N)CCCNC(=N)N)C(=O)N[C@H]1CSSC[C@@H](C(=O)N[C@H](C(=O)NCC(=O)N[C@@H](CCCNC(=N)N)C(N)=O)C(C)C)NC(=O)[C@H](C(C)C)NC(=O)[C@@H]2CSSC[C@H](NC(=O)[C@H](Cc3ccc(O)cc3)NC1=O)C(=O)N[C@@H](CCCNC(=N)N)C(=O)N[C@@H](CCCNC(=N)N)C(=O)N[C@@H](CCCNC(=N)N)C(=O)N[C@@H](Cc1ccccc1)C(=O)N2 [Protegrin-1, reference compound]	47.83 ±6.23	56.75 ±6.02	71.66 ±12.24	< 500										
GVLVLFRRR-NH2 [Ptg C-ter 1]	0.40 ±0.10	0.99 ±0.26	1.17 ±0.07		> 20	> 20	> 20	> 20	> 20	> 20	> 20	> 20	100	
GVLVWFRRR-NH2 [Ptg C-ter 2]	0.52 ±0.05	1.14 ±0.02	1.80 ±0.07	< 500	> 20	> 20	> 20	> 20	> 20	> 20	> 20	> 20	100	
GVWVLFRRR-NH2 [Ptg C-ter 3]	0.44 ±0.10	0.80 ±0.09	1.32 ±0.09	< 500	> 20	> 20	> 20	> 20	> 20	> 20	> 20	> 20	100	
LLLLLWRRR-NH2 [AcWL-2]	14.39 ±0.70	15.13 ± 2.05	27.97 ±2.79		10		10		20	> 20	> 20	> 20	50	
RWLRWWIRV-NH2 [HLWCopW29-1]	1.20 ±0.14	1.35 ±0.11	16.39 ±2.19		10		10		1.25	2.5	20		> 200	
WLRRWWIRV-NH2 [HLWCopW29-2]	1.87 ±0.12	4.13 ±0.28	19.60 ±0.50		10		10		2.5	5	> 20	> 20	> 200	> 20
WLVWIGRRR-NH2 [Hybrid-2]	0.66 ±0.07	1.21 ±0.01	2.88 ±1.49		> 20	> 20	> 20	> 20	10		> 20	> 20	> 200	
WLVWVGRRR-NH2 [Hybrid-1]	0.88 ±0.24	1.09 ±0.32	1.40 ±0.08		> 20	> 20	> 20	> 20	> 20	> 20	> 20	> 20	> 200	
WLVWVWRRR-NH2 [Hybrid-3]	4.26 ±0.63	5.14 ±0.19	7.17 ±1.09		2.5	10	5	10	0.63	2.5	> 20	> 20	> 200	
